Holding throughout (type): in vivo
In series [1] the test system is APESV=Apera spica-venti=weed. Kind of series: Greenhouse trial, post-emergence action against weeds (test method 1). The conditions noted are these: PO application, about 3 weeks after application. Here is the method:
(§1) In the standard design of the test, seeds of various broad-leaved weed and weed grass biotypes (origins) were sown in a 8-13 cm diameter pot filled with natural soil of a standard field soil (loamy silt; non-sterile) and covered with a covering soil layer of about 1 cm. The pots were then cultivated in a greenhouse (12-16 h of light, temperature day 20-22° C., night 15-18° C.) until the time of application. The pots were treated on a laboratory track sprayer with spray liquors comprising the compositions according to the invention, mixtures of the prior art or components used individually. Application of the active compounds or active compound combinations formulated as WG, WP, EC or otherwise was carried out at the appropriate growth stages of the plants. The application rate for the spray application was 100-600 l of water/ha. After the treatment, the plants were returned to the greenhouses.
(§2) About 3 weeks after the application, the soil action or/and foliar action was assessed visually according to a scale of 0-100% in comparison to an untreated comparative group: 0%=no noticeable effect compared to the untreated comparative group; 100%=full effect compared to the untreated comparative group.
(§3) (notes: the term “seeds” also includes vegetative propagation forms such as, for example, rhizome pieces; abbreviations used: h light=hours of illumination, g of AS/ha=gram of active substance per hectare, l/ha=liter per hectare, S=sensitive, R=resistant) • 1. Post-emergence action against weeds: seeds of various broad-leaved weed and weed grass biotypes (origins) were sown in a 8-13 cm diameter pot filled with natural soil of a standard field soil (loamy silt; non-sterile) and covered with a covering soil layer of about 1 cm. The pots were then cultivated in a greenhouse (12-16 h of light, temperature day 20-22° C., night 15-18° C.) until the time of application. The pots were treated at various BBCH stages between 11-25 of the seeds/plants, i.e. generally between two to three weeks after the start of the cultivation, on a laboratory track sprayer with spray liquors comprising the compositions according to the invention, mixtures or components used individually, as WG, WP, EC or other formulations. The application rate for the spray application was 100-600 l of water/ha. After the treatment, the plants were returned to the greenhouses and, when required, treated with fertilizer and watered. • 2. Selective post-emergence action: seeds of various crop species (origins) were sown in a 8-13 cm diameter pot filled with natural soil of a standard field soil (loamy silt; non-sterile) and covered with a covering soil layer of about 1 cm. The pots were then cultivated in a greenhouse (12-16 h of light, temperature day 20-22° C., night 15-18° C.) until the time of application. The pots were treated at various BBCH stages between 11-32 of the seeds/plants, i.e. generally between two to four weeks after the start of the cultivation, on a laboratory track sprayer with spray liquors comprising the compositions according to the invention, mixtures or components used individually, as WG, WP, EC or other formulations. The application rate for the spray application was 100-600 l of water/ha. After the treatment, the plants were returned to the greenhouses and, when required, treated with fertilizer and watered. The pots were cultivated in a greenhouse (12-16 h light, temperature day 20-22° C., night 15-18° C.).
(§4) Insofar as herbicidal effects of the compositions according to the invention compared to mixtures of the prior art or compared to components applied individually against economically important mono- and dicotyledonous harmful plants were the center of attention, the synergistic herbicidal activities were calculated using Colby's formula (cf. S. R. Colby; Weeds 15 (1967), 20-22): […]

The subject of series [2] is VIOAR=Viola arvensis=weed. Described as above. The conditions noted are these: PO application, about 3 weeks after application. Here is the method: as §1, §2, §3, §4
Series [3] deals with HORVS=Hordeum vulgare, summer barley=crop plant. Put plainly: Greenhouse trial, selective post-emergence action on crop (test method 2). Here is the method: as §1, §2
(notes: the term “seeds” also includes vegetative propagation forms such as, for example, rhizome pieces; abbreviations used: h light=hours of illumination, g of AS/ha=gram of active substance per hectare, l/ha=liter per hectare, S=sensitive, R=resistant) • 1. […]
as §4

For `CC(C)N(C(=O)COc1nnc(C(F)(F)F)s1)c1ccc(F)cc1` [(A) flufenacet, N-(4-fluorophenyl)-N-(1-methylethyl)-2-[[5-(trifluoromethyl)-1,3,4-thiadiazol-2-yl]oxy]acetamide], in series [1] (120 g of AS/ha), the “activity on APESV, visual scale 0-100% vs untreated” value was determined as 60%. Moreover, the “activity on VIOAR, visual scale 0-100% vs untreated” value in series [2] (120 g of AS/ha) worked out at 40%. Besides, the “activity (crop damage) on HORVS, visual scale 0-100% vs untreated” value in series [3] (Hordeum vulgare (summer barley), in vivo, po) was found to be 40%.

For the compound `CSc1nnc(C(C)(C)C)c(=O)n1N` [(C) metribuzin, 4-amino-6-(1,1-dimethylethyl)-3-(methylthio)-1,2,4-triazin-5(4H)-one], in series [1] (140 g of AS/ha), the “activity on APESV, visual scale 0-100% vs untreated” value amounted to 79%. Moreover, the “activity on VIOAR, visual scale 0-100% vs untreated” value in series [2] (140 g of AS/ha) stood at 90%. In series [3] (PO application, 140 g of AS/ha, about 3 weeks after application, greenhouse), the “activity (crop damage) on HORVS, visual scale 0-100% vs untreated” value was 70%.

Regarding `CC(Oc1ccc(Oc2ccc(Cl)cc2Cl)cc1)C(=O)O` (racemic) [(B) diclofop, (±)-2-[4-(2,4-dichlorophenoxy)phenoxy]propanoic acid], the “activity on APESV, visual scale 0-100% vs untreated” value in series [1] (378 g of AS/ha) turned out to be 0%. Further, the “activity on VIOAR, visual scale 0-100% vs untreated” value in series [2] (378 g of AS/ha) stood at 0%. In addition, in series [3] (PO application, 378 g of AS/ha, about 3 weeks after application, greenhouse), the “activity (crop damage) on HORVS, visual scale 0-100% vs untreated” value turned out to be 20%.

Source of the values: patent publication US20110160059A1, “Herbicidal compositions comprising flufenacet” (Bayer CropScience AG, priority 2009, published 2011).
